For one test, the target named is T1, M1 muscarinic receptor (Homo sapiens, UniProt P11229).
T1 construct: expressed in transfected cells; host or cells: CHO (M1-CHO)
T1 sequence (P11229 1-460): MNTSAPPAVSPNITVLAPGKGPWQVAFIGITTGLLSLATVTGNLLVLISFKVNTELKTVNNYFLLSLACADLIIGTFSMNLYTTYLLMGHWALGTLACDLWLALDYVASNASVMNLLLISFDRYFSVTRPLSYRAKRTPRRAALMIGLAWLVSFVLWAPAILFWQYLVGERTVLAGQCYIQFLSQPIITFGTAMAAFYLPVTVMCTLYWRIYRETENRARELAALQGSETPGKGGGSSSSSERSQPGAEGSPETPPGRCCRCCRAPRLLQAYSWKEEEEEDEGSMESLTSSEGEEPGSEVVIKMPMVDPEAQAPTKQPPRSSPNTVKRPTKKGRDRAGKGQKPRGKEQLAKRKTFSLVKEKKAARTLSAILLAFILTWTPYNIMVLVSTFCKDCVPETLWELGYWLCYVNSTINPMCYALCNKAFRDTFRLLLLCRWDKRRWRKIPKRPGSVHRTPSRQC
The test is described as follows: Functional mobilization of intracellular calcium (FLIPR) in M1-CHO cells. In kind it is cell-based. The following applies: M1 receptor, calcium mobilization; for Emax: read-out: M1 Efficacy. The method, boiled down:
(§1)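 Two modes: direct compound addition for agonism, or 15 min compound pre-incubation (or co-application) before carbachol at EC80 for inhibition. Calcium signal from Fluo-3 AM or Calcium 3 dye in CHO cells, 1 mM probenecid, pH 7.4, read 60 sec at 488/540 nm; DMSO 0.5% final.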

In the next test the target is T2, M4 muscarinic receptor (Homo sapiens, UniProt P08173).
T2 construct: expressed in transfected cells; host or cells: CHO (M4-CHO)
T2 sequence (P08173 1-479): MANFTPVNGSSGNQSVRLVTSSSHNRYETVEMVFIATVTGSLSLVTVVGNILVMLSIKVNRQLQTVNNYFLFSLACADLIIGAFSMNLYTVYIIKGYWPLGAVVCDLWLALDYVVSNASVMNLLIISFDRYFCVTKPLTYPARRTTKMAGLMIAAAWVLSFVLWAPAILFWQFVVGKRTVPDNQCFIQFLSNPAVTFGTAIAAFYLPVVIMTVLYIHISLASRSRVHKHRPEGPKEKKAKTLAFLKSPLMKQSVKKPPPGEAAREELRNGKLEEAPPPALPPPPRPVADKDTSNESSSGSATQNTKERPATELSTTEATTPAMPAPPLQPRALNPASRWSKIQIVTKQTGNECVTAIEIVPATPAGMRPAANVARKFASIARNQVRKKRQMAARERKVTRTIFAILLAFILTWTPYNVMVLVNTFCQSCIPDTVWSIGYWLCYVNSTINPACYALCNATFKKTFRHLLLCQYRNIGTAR
The experiment in a line: Functional mobilization of intracellular calcium (FLIPR) in M4-CHO cells. The test is classed as cell-based. The following applies: M4 receptor, calcium mobilization; for Emax: read-out: M4 Efficacy. In a few lines: as §1

Results on 23 compounds are retold here after patent publication US7786141B2 (Vertex Pharmaceuticals Incorporated, priority 2004, dated 2010).

Each structure is given as a SMILES string.

`Clc1ccc2c(c1)C1(CCN(CC3CCCCC3)CC1)CN2` [compound 157]: on M1 muscarinic receptor, the “M1 Activity” value is listed as “xxx (activity was measured to be less than 0.1 μM)” and the Emax was 65 to 85%. Besides, at M4 muscarinic receptor, the “M4 Activity” value is on record as “x (activity was measured to be greater than 1.0 μM)” and the Emax was > 85%.

Take `CC(=O)N[C@H]1CC2(CCN(C3C[C@H]4CC[C@@H]3C4)CC2)c2ccccc21` (stereo partly shown) [compound 158]: at M1 muscarinic receptor, the “M1 Activity” value is on record as “xxx (activity was measured to be less than 0.1 μM)” and the Emax is > 85%. At M4 muscarinic receptor, the “M4 Activity” value is listed as “x (activity was measured to be greater than 1.0 μM)” and the Emax is > 85%.

Take `CC(=O)NC1CC2(CCN(C3CCCCCC3)CC2)c2ccccc21` (stereo not shown) [compound 159]: at M1 muscarinic receptor, the “M1 Activity” value is “xx (activity was measured to be between 0.1 μM and 1.0 μM)”; the Emax is > 85%. On M4 muscarinic receptor, the “M4 Activity” value was “x (activity was measured to be greater than 1.0 μM)” and the Emax is > 85%.

With `CC(C)COC(=O)N1C2CCC1CC(N1CCC3(CC1)COc1ccc(F)cc13)C2` (stereo not shown) [compound 160], at M1 muscarinic receptor, the “M1 Activity” value is listed as “xxx (activity was measured to be less than 0.1 μM)” and the Emax was > 85%. In addition, on M4 muscarinic receptor, the “M4 Activity” value was “xx (activity was measured to be between 0.1 μM and 1.0 μM)”; the Emax is > 85%.

On to `CC(=O)NC1CC2(CCN(C[C@H]3C[C@H]4CC[C@H]3C4)CC2)c2ccccc21` (stereo partly shown) [compound 161], for which, at M1 muscarinic receptor, the “M1 Activity” value is “xx (activity was measured to be between 0.1 μM and 1.0 μM)”; the Emax was > 85%. For the same compound, on M4 muscarinic receptor, the “M4 Activity” value is given as “x (activity was measured to be greater than 1.0 μM)” and the Emax was > 85%.

As to `COCCOC(=O)N1C2CCC1CC(N1CCC3(CC1)CN(C(=O)O[C@@H]1CCOC1)c1ccc(F)cc13)C2` (stereo partly shown) [compound 162], on M1 muscarinic receptor, the “M1 Activity” value was “xxx (activity was measured to be less than 0.1 μM)” and the Emax was in the range of 65 to 85%. On M4 muscarinic receptor, the “M4 Activity” value was “x (activity was measured to be greater than 1.0 μM)” and the Emax was > 85%.

`CC(=O)N1CC2(CCN(CC3=CCCCC3)CC2)c2cc(F)ccc21` [compound 163]: on M1 muscarinic receptor, the “M1 Activity” value is “xxx (activity was measured to be less than 0.1 μM)” and the Emax was 65 to 85%. On M4 muscarinic receptor, the “M4 Activity” value was “xx (activity was measured to be between 0.1 μM and 1.0 μM)”; the Emax was > 85%.

Turning to `Clc1ccc2c(c1)C1(CCO2)CCN(C[C@@H]2C[C@H]3C=C[C@H]2C3)CC1` [compound 164], on M1 muscarinic receptor, the “M1 Activity” value was “xx (activity was measured to be between 0.1 μM and 1.0 μM)”; the Emax was > 85%. Also, at M4 muscarinic receptor, the “M4 Activity” value was “x (activity was measured to be greater than 1.0 μM)” and the Emax is > 85%.

In the case of `CCOC(=O)N1CCC(N2CCC3(CC2)CN(C(C)=O)c2ccc(-c4ccsc4)cc23)CC1` [compound 165], on M1 muscarinic receptor, the “M1 Activity” value is “x (activity was measured to be greater than 1.0 μM)” and the Emax lay in the range of 65 to 85%. For the same compound, on M4 muscarinic receptor, the “M4 Activity” value is given as “x (activity was measured to be greater than 1.0 μM)” and the Emax is > 85%.

In the case of `CC(C)OC(=O)N1C2CCC1CC(N1CCC3(CC1)CN(C(=O)OC1CCC1)c1ccc(F)cc13)C2` (stereo not shown) [compound 166], at M1 muscarinic receptor, the “M1 Activity” value is given as “xxx (activity was measured to be less than 0.1 μM)” and the Emax is > 85%. For the same compound, on M4 muscarinic receptor, the “M4 Activity” value is given as “x (activity was measured to be greater than 1.0 μM)” and the Emax was > 85%.

On to `CCOC(=O)N1C2CCC1CC(N1CCC3(CC1)CN(C(=O)OC)c1ccc(F)cc13)C2` (stereo not shown) [compound 167], for which, at M1 muscarinic receptor, the “M1 Activity” value is “xxx (activity was measured to be less than 0.1 μM)” and the Emax fell in the range of 65 to 85%. At M4 muscarinic receptor, the “M4 Activity” value was “xx (activity was measured to be between 0.1 μM and 1.0 μM)”; the Emax was > 85%.

With `CC(=O)N1CC2(CCN(C3CCCN(C(=O)OCCF)CC3)CC2)c2cc(F)ccc21` (stereo not shown) [compound 168], the “M1 Activity” value on M1 muscarinic receptor was “xx (activity was measured to be between 0.1 μM and 1.0 μM)”. Further, on M4 muscarinic receptor, the “M4 Activity” value is “xx (activity was measured to be between 0.1 μM and 1.0 μM)”; the Emax is > 85%.

On to `CCOC(=O)N1CCC(N2CCC3(CC2)CN(C(=O)N(C)c2ccccc2)c2ccc(F)cc23)CC1` [compound 169], for which, on M1 muscarinic receptor, the “M1 Activity” value is on record as “xxx (activity was measured to be less than 0.1 μM)” and the Emax lay in the range of 65 to 85%. Moreover, at M4 muscarinic receptor, the “M4 Activity” value is “x (activity was measured to be greater than 1.0 μM)” and the Emax was > 85%.

For the compound `CC(C)OC(=O)N1C2CCC1CC(N1CCC3(CC1)CN(S(C)(=O)=O)c1ccc(F)cc13)C2` (stereo not shown) [compound 170], at M1 muscarinic receptor, the “M1 Activity” value was “xx (activity was measured to be between 0.1 μM and 1.0 μM)”; the Emax was 65 to 85%. Also, on M4 muscarinic receptor, the “M4 Activity” value was “x (activity was measured to be greater than 1.0 μM)” and the Emax is > 85%.

Regarding `CC(=O)N[C@@H]1CC2(CCN([C@H]3C[C@@H]4CC[C@H]3C4)CC2)c2ccccc21` [compound 171], on M1 muscarinic receptor, the “M1 Activity” value is “xx (activity was measured to be between 0.1 μM and 1.0 μM)”; the Emax is > 85%. In addition, at M4 muscarinic receptor, the “M4 Activity” value was “x (activity was measured to be greater than 1.0 μM)” and the Emax was in the range of 65 to 85%.

For the compound `CC(=O)N1CC2(CCN(C3CCN(C(=O)OCCF)CC3)CC2)c2cc(F)ccc21` [compound 172], at M1 muscarinic receptor, the “M1 Activity” value is listed as “x (activity was measured to be greater than 1.0 μM)” and the Emax was > 85%. Also, on M4 muscarinic receptor, the “M4 Activity” value was “x (activity was measured to be greater than 1.0 μM)” and the Emax is 65 to 85%.

For `CCOC(=O)N1CCC(N2CCC3(CC2)CN(C(=O)OC)c2ccc(F)cc23)CC1` [compound 173], on M1 muscarinic receptor, the “M1 Activity” value was “xxx (activity was measured to be less than 0.1 μM)” and the Emax fell in the range of 65 to 85%. For the same compound, on M4 muscarinic receptor, the “M4 Activity” value is “xx (activity was measured to be between 0.1 μM and 1.0 μM)”; the Emax was > 85%.

Take `CC(=O)N1CC2(CCN(C3CC4CCC(C3)N4C(=O)OC3CCC3)CC2)c2cc(F)ccc21` (stereo not shown) [compound 174]: on M1 muscarinic receptor, the “M1 Activity” value is “xxx (activity was measured to be less than 0.1 μM)” and the Emax was > 85%. In addition, on M4 muscarinic receptor, the “M4 Activity” value was “x (activity was measured to be greater than 1.0 μM)” and the Emax lay within 65 to 85%.

In the case of `Fc1ccc2c(c1)C1(CCN([C@@H]3C[C@@H]4CC[C@H]3C4)CC1)CO2` [compound 175], on M1 muscarinic receptor, the “M1 Activity” value is recorded as “xxx (activity was measured to be less than 0.1 μM)” and the Emax lay in the range of 65 to 85%. Besides, on M4 muscarinic receptor, the “M4 Activity” value was “xx (activity was measured to be between 0.1 μM and 1.0 μM)”; the Emax was 65 to 85%.

Turning to `CCOC(=O)N1CCC(CN2CCC3(CC2)COc2ccc(Cl)cc23)CC1` [compound 176], at M1 muscarinic receptor, the “M1 Activity” value was “xx (activity was measured to be between 0.1 μM and 1.0 μM)”; the Emax is > 85%. Also, on M4 muscarinic receptor, the “M4 Activity” value is “xx (activity was measured to be between 0.1 μM and 1.0 μM)”; the Emax is 65 to 85%.

As to `CCOC(=O)N1CCC(N2CCC3(CC2)CN(C(C)=O)c2ccc(-c4ccc(S(C)(=O)=O)cc4)cc23)CC1` [compound 177], at M1 muscarinic receptor, the “M1 Activity” value is “xxx (activity was measured to be less than 0.1 μM)” and the Emax was in the range of 65 to 85%. In addition, at M4 muscarinic receptor, the “M4 Activity” value is “xx (activity was measured to be between 0.1 μM and 1.0 μM)”; the Emax lay in the range of 65 to 85%.

On to `Clc1ccc2c(c1)C1(CCO2)CCN(C2CCOCC2)CC1` [compound 178], for which, on M1 muscarinic receptor, the “M1 Activity” value was “xx (activity was measured to be between 0.1 μM and 1.0 μM)”; the Emax was > 85%. Besides, on M4 muscarinic receptor, the “M4 Activity” value is given as “x (activity was measured to be greater than 1.0 μM)” and the Emax lay within 65 to 85%.

As to `CCOC(=O)N1C2CCC1CC(N1CCC3(CC1)CN(C(=O)C1CCC1)c1ccc(F)cc13)C2` (stereo not shown) [compound 179], on M1 muscarinic receptor, the “M1 Activity” value is “xx (activity was measured to be between 0.1 μM and 1.0 μM)”; the Emax was > 85%. Besides, at M4 muscarinic receptor, the “M4 Activity” value is “x (activity was measured to be greater than 1.0 μM)” and the Emax was 65 to 85%.
